Blank lines part the entries; values can stand above or below the compound they belong to.
System: K24384-001-R-PDC complex spheroid growth
Test: Anticancer human tumor K24384-001-R-PDC patient-derived pancreatic adenocarcinoma cell line growth inhibition [AhR]
Conditions: for IC50: curve of first compound; for viability, T/C: stronger effect = lower value
Procedure, shortened: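 Complex tumor spheroids co-cultured with HUVEC and human MSC stroma; AhR antagonists tested in combination with standard-of-care and investigational agents. Top concentration at or near clinical Cmax (else 10 microM), half-log dilutions; growth expressed as percent test/control.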

[1] = second compound 0.1 µM, first compound 0.0316 µM
[2] = second compound 0.1 µM, first compound 0.1 µM
[3] = second compound 0.1 µM, first compound 0.316 µM
[4] = second compound 0.1 µM, first compound 1 µM
[5] = second compound 0.316 µM, first compound 0.0316 µM
[6] = second compound 0.316 µM, first compound 0.1 µM
[7] = second compound 0.316 µM, first compound 0.316 µM
[8] = second compound 0.316 µM, first compound 1 µM
[9] = second compound 1 µM, first compound 0.0316 µM
[10] = second compound 1 µM, first compound 0.1 µM
[11] = second compound 1 µM, first compound 0.316 µM
[12] = second compound 1 µM, first compound 1 µM
[13] = second compound 3.16 µM, first compound 0.0316 µM
[14] = second compound 3.16 µM, first compound 0.1 µM
[15] = second compound 3.16 µM, first compound 0.316 µM
[16] = second compound 3.16 µM, first compound 1 µM
[17] = second compound 10 µM, first compound 0.0316 µM
[18] = second compound 10 µM, first compound 0.1 µM
[19] = second compound 10 µM, first compound 0.316 µM
[20] = second compound 10 µM, first compound 1 µM
[21] = second compound 0.1 µM, first compound 3.16 µM
[22] = second compound 0.1 µM, first compound 10 µM
[23] = second compound 0.316 µM, first compound 3.16 µM
[24] = second compound 0.316 µM, first compound 10 µM
[25] = second compound 1 µM, first compound 3.16 µM
[26] = second compound 1 µM, first compound 10 µM
[27] = second compound 3.16 µM, first compound 3.16 µM
[28] = second compound 3.16 µM, first compound 10 µM
[29] = second compound 10 µM, first compound 3.16 µM
[30] = second compound 10 µM, first compound 10 µM
[31] = second compound 0.1 µM, first compound 0.00949 µM
[32] = second compound 0.1 µM, first compound 0.03 µM
[33] = second compound 0.1 µM, first compound 0.0949 µM
[34] = second compound 0.1 µM, first compound 0.3 µM
[35] = second compound 0.316 µM, first compound 0.00949 µM
[36] = second compound 0.316 µM, first compound 0.03 µM
[37] = second compound 0.316 µM, first compound 0.0949 µM
[38] = second compound 0.316 µM, first compound 0.3 µM
[39] = second compound 1 µM, first compound 0.00949 µM
[40] = second compound 1 µM, first compound 0.03 µM
[41] = second compound 1 µM, first compound 0.0949 µM
[42] = second compound 1 µM, first compound 0.3 µM
[43] = second compound 3.16 µM, first compound 0.00949 µM
[44] = second compound 3.16 µM, first compound 0.03 µM
[45] = second compound 3.16 µM, first compound 0.0949 µM
[46] = second compound 3.16 µM, first compound 0.3 µM
[47] = second compound 10 µM, first compound 0.00949 µM
[48] = second compound 10 µM, first compound 0.03 µM
[49] = second compound 10 µM, first compound 0.0949 µM
[50] = second compound 10 µM, first compound 0.3 µM
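Throughout, for viability, T/C: percent of DMSO vehicle-treated spheroid viability set as 100%.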

SMILES: CC1COCCN1c1cc(-c2ccnn2C)c2ccnc(-c3ccn[nH]3)c2n1 (stereo not given) + Cc1cncc(-c2nc(NCCc3c[nH]c4ccccc34)c3ncn(C(C)C)c3n2)c1
- IC50 (second compound 0.1 µM): 73.9 nM
- IC50 (second compound 0.316 µM): 93.3 nM
- IC50 (second compound 1 µM): 90.5 nM
- IC50 (second compound 3.16 µM): 55.2 nM
- IC50 (second compound 10 µM): < 3.16 nM
- viability, T/C (second compound 0.1 µM, first compound 0.00316 µM): 88.3%
- viability, T/C (second compound 0.1 µM, first compound 0.01 µM): 81.3%
- viability, T/C [1]: 65.3%
- viability, T/C [2]: 46.1%
- viability, T/C [3]: 25.7%
- viability, T/C [4]: 22.2%
- viability, T/C (second compound 0.316 µM, first compound 0.00316 µM): 95.6%
- viability, T/C (second compound 0.316 µM, first compound 0.01 µM): 95.8%
- viability, T/C [5]: 89.1%
- viability, T/C [6]: 46.4%
- viability, T/C [7]: 31.8%
- viability, T/C [8]: 20.5%
- viability, T/C (second compound 1 µM, first compound 0.00316 µM): 94.5%
- viability, T/C (second compound 1 µM, first compound 0.01 µM): 104%
- viability, T/C [9]: 87.3%
- viability, T/C [10]: 46.9%
- viability, T/C [11]: 24.8%
- viability, T/C [12]: 24.6%
- viability, T/C (second compound 3.16 µM, first compound 0.00316 µM): 73%
- viability, T/C (second compound 3.16 µM, first compound 0.01 µM): 88.3%
- viability, T/C [13]: 69%
- viability, T/C [14]: 30.1%
- viability, T/C [15]: 27.3%
- viability, T/C [16]: 27.7%
- viability, T/C (second compound 10 µM, first compound 0.00316 µM): 7.24%
- viability, T/C (second compound 10 µM, first compound 0.01 µM): 7.46%
- viability, T/C [17]: 8.32%
- viability, T/C [18]: 5.4%
- viability, T/C [19]: 4.59%
- viability, T/C [20]: 6.27%

SMILES: COc1ccc([C@@H](O)c2cc(-c3ncnc4cc(N5CCOCC5)ccc34)c(F)cc2Cl)nn1 + Cc1cncc(-c2nc(NCCc3c[nH]c4ccccc34)c3ncn(C(C)C)c3n2)c1
- IC50 (second compound 0.1 µM): 4410 nM
- IC50 (second compound 0.316 µM): 2820 nM
- IC50 (second compound 1 µM): 2820 nM
- IC50 (second compound 3.16 µM): 1940 nM
- IC50 (second compound 10 µM): < 31.6 nM
- viability, T/C [1]: 88%
- viability, T/C [2]: 93.3%
- viability, T/C [3]: 93.2%
- viability, T/C [4]: 68.5%
- viability, T/C [21]: 57.8%
- viability, T/C [22]: 38.4%
- viability, T/C [5]: 109%
- viability, T/C [6]: 106%
- viability, T/C [7]: 86.2%
- viability, T/C [8]: 68.4%
- viability, T/C [23]: 48%
- viability, T/C [24]: 36.6%
- viability, T/C [9]: 84.1%
- viability, T/C [10]: 94.5%
- viability, T/C [11]: 118%
- viability, T/C [12]: 96.7%
- viability, T/C [25]: 44.9%
- viability, T/C [26]: 33.9%
- viability, T/C [13]: 76.8%
- viability, T/C [14]: 98.2%
- viability, T/C [15]: 71.1%
- viability, T/C [16]: 54.7%
- viability, T/C [27]: 50.7%
- viability, T/C [28]: 31.9%
- viability, T/C [17]: 9.83%
- viability, T/C [18]: 8.38%
- viability, T/C [19]: 6.49%
- viability, T/C [20]: 8.45%
- viability, T/C [29]: 9.55%
- viability, T/C [30]: 13.7%

SMILES: O=C(C=Cn1cnc(-c2cc(C(F)(F)F)cc(C(F)(F)F)c2)n1)NNc1cnccn1 + Cc1cncc(-c2nc(NCCc3c[nH]c4ccccc34)c3ncn(C(C)C)c3n2)c1
- IC50 (second compound 0.1 µM): 209 nM
- IC50 (second compound 0.316 µM): 242 nM
- IC50 (second compound 1 µM): 229 nM
- IC50 (second compound 3.16 µM): 196 nM
- IC50 (second compound 10 µM): < 9.49 nM
- viability, T/C [31]: 93.8%
- viability, T/C [32]: 94.8%
- viability, T/C [33]: 73.2%
- viability, T/C [34]: 39.3%
- viability, T/C (second compound 0.1 µM, first compound 0.949 µM): 27.4%
- viability, T/C (second compound 0.1 µM, first compound 3 µM): 23.6%
- viability, T/C [35]: 90.8%
- viability, T/C [36]: 95.4%
- viability, T/C [37]: 72.6%
- viability, T/C [38]: 45.3%
- viability, T/C (second compound 0.316 µM, first compound 0.949 µM): 29.2%
- viability, T/C (second compound 0.316 µM, first compound 3 µM): 24.8%
- viability, T/C [39]: 116%
- viability, T/C [40]: 111%
- viability, T/C [41]: 79.6%
- viability, T/C [42]: 40.6%
- viability, T/C (second compound 1 µM, first compound 0.949 µM): 26.4%
- viability, T/C (second compound 1 µM, first compound 3 µM): 19.9%
- viability, T/C [43]: 94.9%
- viability, T/C [44]: 90.6%
- viability, T/C [45]: 74.7%
- viability, T/C [46]: 35.1%
- viability, T/C (second compound 3.16 µM, first compound 0.949 µM): 25.1%
- viability, T/C (second compound 3.16 µM, first compound 3 µM): 20.4%
- viability, T/C [47]: 9.12%
- viability, T/C [48]: 12.6%
- viability, T/C [49]: 17.1%
- viability, T/C [50]: 16.6%
- viability, T/C (second compound 10 µM, first compound 0.949 µM): 15.1%
- viability, T/C (second compound 10 µM, first compound 3 µM): 12.8%

The next lines start with results.

- IC50 (second compound 0.1 µM): 3220 nM
- IC50 (second compound 0.316 µM): 4430 nM
- IC50 (second compound 1 µM): 4740 nM
- IC50 (second compound 3.16 µM): 1270 nM
- IC50 (second compound 10 µM): < 31.6 nM
SMILES: CC1COCCN1c1cc(C2(S(C)(=N)=O)CC2)nc(-c2ccnc3[nH]ccc23)n1 (stereo not given) + Cc1cncc(-c2nc(NCCc3c[nH]c4ccccc34)c3ncn(C(C)C)c3n2)c1
- viability, T/C [1]: 97.7%
- viability, T/C [2]: 105%
- viability, T/C [3]: 105%
- viability, T/C [4]: 84.1%
- viability, T/C [21]: 51.2%
- viability, T/C [22]: 32.2%
- viability, T/C [5]: 94.7%
- viability, T/C [6]: 102%
- viability, T/C [7]: 96.3%
- viability, T/C [8]: 87.3%
- viability, T/C [23]: 58.8%
- viability, T/C [24]: 29.1%
- viability, T/C [9]: 116%
- viability, T/C [10]: 113%
- viability, T/C [11]: 118%
- viability, T/C [12]: 95%
- viability, T/C [25]: 61.1%
- viability, T/C [26]: 31.1%
- viability, T/C [13]: 80.6%
- viability, T/C [14]: 74.8%
- viability, T/C [15]: 70%
- viability, T/C [16]: 52%
- viability, T/C [27]: 37.8%
- viability, T/C [28]: 25.9%
- viability, T/C [17]: 10.3%
- viability, T/C [18]: 11.3%
- viability, T/C [19]: 11.8%
- viability, T/C [20]: 11.8%
- viability, T/C [29]: 8.29%
- viability, T/C [30]: 10.9%

- IC50 (second compound 0.1 µM): > 300 nM
- IC50 (second compound 0.316 µM): > 300 nM
- IC50 (second compound 1 µM): > 300 nM
- IC50 (second compound 3.16 µM): < 0.949 nM
- IC50 (second compound 10 µM): < 0.949 nM
SMILES: Nc1ncn(C2CC(O)C(CO)S2)c(=O)n1 (stereo not given) + Cc1cncc(-c2nc(NCCc3c[nH]c4ccccc34)c3ncn(C(C)C)c3n2)c1
- viability, T/C (second compound 0.1 µM, first compound 0.000949 µM): 122%
- viability, T/C (second compound 0.1 µM, first compound 0.003 µM): 126%
- viability, T/C [31]: 116%
- viability, T/C [32]: 101%
- viability, T/C [33]: 78.1%
- viability, T/C [34]: 73.5%
- viability, T/C (second compound 0.316 µM, first compound 0.000949 µM): 134%
- viability, T/C (second compound 0.316 µM, first compound 0.003 µM): 137%
- viability, T/C [35]: 122%
- viability, T/C [36]: 119%
- viability, T/C [37]: 98.1%
- viability, T/C [38]: 84%
- viability, T/C (second compound 1 µM, first compound 0.000949 µM): 173%
- viability, T/C (second compound 1 µM, first compound 0.003 µM): 162%
- viability, T/C [39]: 177%
- viability, T/C [40]: 129%
- viability, T/C [41]: 111%
- viability, T/C [42]: 96%
- viability, T/C (second compound 3.16 µM, first compound 0.000949 µM): 28.2%
- viability, T/C (second compound 3.16 µM, first compound 0.003 µM): 38.4%
- viability, T/C [43]: 43.5%
- viability, T/C [44]: 28.2%
- viability, T/C [45]: 29.9%
- viability, T/C [46]: 27.4%
- viability, T/C (second compound 10 µM, first compound 0.000949 µM): 18.1%
- viability, T/C (second compound 10 µM, first compound 0.003 µM): 28.5%
- viability, T/C [47]: 24.7%
- viability, T/C [48]: 12.8%
- viability, T/C [49]: 15.5%
- viability, T/C [50]: 18.5%

From PubChem BioAssay AID1919009 (Molecular Pharmacology Branch, DTP, NCI, 2023)
